Test results: patent publication US8765940B2 (priority 2009, dated 2014)

What follows are molecules tested against PI3Kδ (Homo sapiens (Human), UniProt O00329). Conditions: PI3Kδ Alphascreen assay.
Format: biochemical
Description: A PI3K Alphascreen® assay (PerkinElmer, Waltham, Mass.) was used to measure the activity of a panel of four phosphoinositide 3-kinases: PI3Kα, PI3Kβ, PI3Kγ, and PI3Kδ. Enzyme reaction buffer was prepared using sterile water (Baxter, Deerfield, Ill.) and 50 mM Tris HCl pH 7, 14 mM MgCl2, 2 mM sodium cholate, and 100 mM NaCl. 2 mM DTT was added fresh the day of the experiment. The Alphascreen buffer was made using sterile water and 10 mM Tris HCl pH 7.5, 150 mM NaCl, 0.10% Tween 20, and 30 mM EDTA. 1 mM DTT was added fresh the day of the experiment. Compound source plates used for this assay were 384-well Greiner clear polypropylene plates containing test compounds at 5 mM and diluted 1:2 over 22 concentrations. Columns 23 and 24 contained only DMSO as these wells comprised the positive and negative controls, respectively. Source plates were replicated by transferring 0.5 uL per well into 384-well Optiplates (PerkinElmer, Waltham, Mass.).
Each PI3K isoform was diluted in enzyme reaction buffer to 2× working stocks. PI3Kα was diluted to 1.6 nM, PI3Kβ was diluted to 0.8 nM, PI3Kγ was diluted to 15 nM, and PI3Kδ was diluted to 1.6 nM. PI(4,5)P2 (Echelon Biosciences, Salt Lake City, Utah) was diluted to 10 μM and ATP was diluted to 20 μM. This 2× stock was used in the assays for PI3Kα and PI3Kβ. For assay of PI3Kγ and PI3Kδ, PI(4,5)P2 was diluted to 10 μM and ATP was diluted to 8 μM to prepare a similar 2× working stock. Alphascreen reaction solutions were made using beads from the anti-GST Alphascreen kit (PerkinElmer, Waltham, Mass.). Two 4× working stocks of the Alphascreen reagents were made in Alphascreen reaction buffer. In one stock, biotinylated-IP4 (Echelon Biosciences, Salt Lake City, Utah) was diluted to 40 nM and streptavadin-donor beads were diluted to 80 μg/mL. In the second stock, PIP3-binding protein (Echelon Biosciences, Salt Lake City, Utah) was diluted to 40 nM and anti-GST-acceptor beads were diluted to 80 μg/mL.
Using a 384-well Multidrop (Titertek, Huntsville, Ala.), 10 μL/well of 2× enzyme stock was added to columns 1-24 of the assay plates for each isoform. 10 μL/well of the appropriate substrate 2× stock (containing 20 μM ATP for the PI3Kα and β assays and containing 8 μM ATP for the PI3Kγ and δ assays) was then added to Columns 1-24 of all plates. Plates were then incubated at room temperature for 20 minutes. In the dark, 10 μL/well of the donor bead solution was added to columns 1-24 of the plates to quench the enzyme reaction. The plates were incubated at room temperature for 30 minutes. Still in the dark, 10 μL/well of the acceptor bead solution was added to columns 1-24 of the plates. The plates were then incubated in the dark for 1.5 hours. The plates were read on an Envision multimode Plate Reader (PerkinElmer, Waltham, Mass.) using a 680 nm excitation filter and a 520-620 nm emission filter.

Chain of PI3Kδ (O00329 whole entry): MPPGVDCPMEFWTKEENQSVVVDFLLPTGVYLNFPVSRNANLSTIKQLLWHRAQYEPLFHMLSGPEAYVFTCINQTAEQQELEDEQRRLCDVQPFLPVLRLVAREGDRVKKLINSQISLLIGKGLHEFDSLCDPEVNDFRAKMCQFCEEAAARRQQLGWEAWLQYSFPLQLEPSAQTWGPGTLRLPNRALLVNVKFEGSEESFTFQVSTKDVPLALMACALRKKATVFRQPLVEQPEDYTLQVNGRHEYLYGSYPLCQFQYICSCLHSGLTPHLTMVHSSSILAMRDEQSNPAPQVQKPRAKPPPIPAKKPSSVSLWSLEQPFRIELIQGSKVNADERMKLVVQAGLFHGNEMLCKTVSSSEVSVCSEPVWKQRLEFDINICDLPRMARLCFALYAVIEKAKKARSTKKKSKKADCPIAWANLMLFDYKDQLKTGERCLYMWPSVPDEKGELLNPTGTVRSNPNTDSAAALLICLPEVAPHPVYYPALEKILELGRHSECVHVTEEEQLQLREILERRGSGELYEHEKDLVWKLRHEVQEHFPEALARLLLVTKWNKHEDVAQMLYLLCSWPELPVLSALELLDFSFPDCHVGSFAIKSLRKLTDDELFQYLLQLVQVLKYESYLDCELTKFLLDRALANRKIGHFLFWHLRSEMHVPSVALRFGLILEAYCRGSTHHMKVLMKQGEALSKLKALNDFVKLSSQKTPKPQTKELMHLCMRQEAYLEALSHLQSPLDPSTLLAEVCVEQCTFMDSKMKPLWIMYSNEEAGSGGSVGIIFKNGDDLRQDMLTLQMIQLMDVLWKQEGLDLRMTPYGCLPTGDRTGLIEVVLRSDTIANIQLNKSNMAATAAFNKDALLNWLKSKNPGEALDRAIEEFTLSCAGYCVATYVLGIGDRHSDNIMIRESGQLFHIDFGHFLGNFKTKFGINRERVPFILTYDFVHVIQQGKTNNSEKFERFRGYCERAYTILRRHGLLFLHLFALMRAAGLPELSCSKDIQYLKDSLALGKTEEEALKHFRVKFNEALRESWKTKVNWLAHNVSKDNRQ
Chain of PI3Kδ (P27986 whole entry partner): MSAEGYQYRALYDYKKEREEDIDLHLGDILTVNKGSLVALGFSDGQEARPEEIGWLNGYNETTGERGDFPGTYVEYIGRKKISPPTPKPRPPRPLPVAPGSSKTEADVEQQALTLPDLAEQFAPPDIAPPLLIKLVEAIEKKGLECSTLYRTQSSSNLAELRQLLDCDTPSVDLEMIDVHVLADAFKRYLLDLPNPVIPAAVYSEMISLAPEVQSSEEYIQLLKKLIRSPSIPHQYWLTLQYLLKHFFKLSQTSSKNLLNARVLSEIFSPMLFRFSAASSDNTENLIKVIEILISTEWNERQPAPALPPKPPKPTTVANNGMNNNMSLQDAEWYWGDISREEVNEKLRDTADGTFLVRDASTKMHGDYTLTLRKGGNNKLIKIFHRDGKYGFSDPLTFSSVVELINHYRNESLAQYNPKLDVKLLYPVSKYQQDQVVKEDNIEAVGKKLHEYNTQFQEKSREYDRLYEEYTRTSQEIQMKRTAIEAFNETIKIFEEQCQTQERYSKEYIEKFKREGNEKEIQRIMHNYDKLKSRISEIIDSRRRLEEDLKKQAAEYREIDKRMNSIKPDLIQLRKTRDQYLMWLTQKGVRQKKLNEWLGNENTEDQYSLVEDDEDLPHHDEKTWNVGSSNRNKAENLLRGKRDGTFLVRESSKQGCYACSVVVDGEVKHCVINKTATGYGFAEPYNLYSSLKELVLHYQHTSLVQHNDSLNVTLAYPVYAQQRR

| Compound | Ki |
| --- | --- |
| Cc1c(N2CCCC2=O)nc2cc(F)cc(F)c2c1N1CC(C)(C)c2ncc(N3CCOCC3)cc21 [1-(4-(3,3-dimethyl-6-(4-morpholinyl)-2,3-dihydro-1H-pyrrolo[3,2-b]pyridin-1-yl)-5,7-difluoro-3-methyl-2-quinolinyl)-2-pyrrolidinone] | 0.00154 µM |
| Cc1c(N2CCC2=O)nc2cc(F)cc(F)c2c1N1CC2(CCOCC2)c2ncc(N3CCOCC3)cc21 [1-(5,7-difluoro-3-methyl-4-(6′-(4-morpholinyl)-2,3,5,6-tetrahydrospiro[pyran-4,3′-pyrrolo[3,2-b]pyridin]-1′(2′H)-yl)-2-quinolinyl)-2-azetidinone] | 0.0023 µM |
| Cc1c(N2CCCCC2=O)nc2cc(F)cc(F)c2c1N1CC2(CCOCC2)c2ncc(N3CCOCC3)cc21 [1-(5,7-difluoro-3-methyl-4-(6′-(4-morpholinyl)-2,3,5,6-tetrahydrospiro[pyran-4,3′-pyrrolo[3,2-b]pyridin]-1′(2′H)-yl)-2-quinolinyl)-2-piperidinone] | 0.00551 µM |
| Cc1c(N2CCCC2=O)nc2cc(F)cc(F)c2c1N1CC2(CCOCC2)c2ncc(N3CCOCC3)cc21 [1-(5,7-difluoro-3-methyl-4-(6′-(4-morpholinyl)-2,3,5,6-tetrahydrospiro[pyran-4,3′-pyrrolo[3,2-b]pyridin]-1′(2′H)-yl)-2-quinolinyl)-2-pyrrolidinone] | 0.00236 µM |
| Cc1c(N2CC(C)(C)CC2=O)nc2cc(F)cc(F)c2c1N1CC2(CCOCC2)c2ncc(N3CCOCC3)cc21 [1-(5,7-difluoro-3-methyl-4-(6′-(4-morpholinyl)-2,3,5,6-tetrahydrospiro[pyran-4,3′-pyrrolo[3,2-b]pyridin]-1′(2′H)-yl)-2-quinolinyl)-4,4-dimethyl-2-pyrrolidinone] | 0.00224 µM |
| Cc1c(N2CC(C)(C)CCC2=O)nc2cc(F)cc(F)c2c1N1CC2(CCOCC2)c2ncc(N3CCOCC3)cc21 [1-(5,7-difluoro-3-methyl-4-(6′-(4-morpholinyl)-2,3,5,6-tetrahydrospiro[pyran-4,3′-pyrrolo[3,2-b]pyridin]-1′(2′H)-yl)-2-quinolinyl)-5,5-dimethyl-2-piperidinone] | 0.0027 µM |
| Cc1c(-c2ccccn2)nc2cccc(F)c2c1N1CCS(=O)(=O)c2ncc(N3CCOCC3)cc21 [1-(5-fluoro-3-methyl-2-(2-pyridinyl)-4-quinolinyl)-7-(4-morpholinyl)-2,3-dihydro-1H-pyrido[2,3-b][1,4]thiazine 4,4-dioxide] | 0.0129 µM |
| Cc1nc2ccc(Cl)cc2c(-n2ccc3c(O)cc(-c4cn[nH]c4)cc32)c1C [1-(6-chloro-2,3-dimethyl-4-quinolinyl)-6-(1H-pyrazol-4-yl)-1H-indol-4-ol] | 4.11 µM |
| Cc1nc2ccc(Cl)cc2c(-n2cc(C#N)c3ccc(-c4cn[nH]c4)cc32)c1C [1-(6-chloro-2,3-dimethyl-4-quinolinyl)-6-(1H-pyrazol-4-yl)-1H-indole-3-carbonitrile] | 2.11 µM |
| Cc1nc2ccc(Cl)cc2c(-n2ccc3c(C#N)cc(-c4cn[nH]c4)cc32)c1C [1-(6-chloro-2,3-dimethyl-4-quinolinyl)-6-(1H-pyrazol-4-yl)-1H-indole-4-carbonitrile] | 1.08 µM |
| Cc1nc2ccc(Cl)cc2c(-n2ccc3c(C#N)cc(N4CCOCC4)cc32)c1C [1-(6-chloro-2,3-dimethyl-4-quinolinyl)-6-(4-morpholinyl)-1H-indole-4-carbonitrile] | 0.153 µM |
| Cc1nc2ccc(Cl)cc2c(-n2ccc3c(C#N)cc(-c4ccncc4)cc32)c1C [1-(6-chloro-2,3-dimethyl-4-quinolinyl)-6-(4-pyridinyl)-1H-indole-4-carbonitrile] | 1.48 µM |
| COc1cc2nc(C)c(C)c(N3CC4(CCOCC4)c4ccc(C#N)cc43)c2cc1Cl [1-(6-chloro-7-methoxy-2,3-dimethyl-4-quinolinyl)-1,2,2′,3′,5′,6′-hexahydrospiro[indole-3,4′-pyran]-6-carbonitrile] | 7.5 µM |
| Cc1c(-c2ccccn2)nc2cc(F)ccc2c1N1CC(C)(C)c2nc(C#N)c(N3CCOCC3)cc21 [1-(7-fluoro-3-methyl-2-(2-pyridinyl)-4-quinolinyl)-3,3-dimethyl-6-(4-morpholinyl)-2,3-dihydro-1H-pyrrolo[3,2-b]pyridine-5-carbonitrile] | 0.0495 µM |
| Cc1c(N2CCCCC2=O)nc2cc(F)ccc2c1N1CC2(CCOCC2)c2ncc(N3CCOCC3)cc21 [1-(7-fluoro-3-methyl-4-(6′-(4-morpholinyl)-2,3,5,6-tetrahydrospiro[pyran-4,3′-pyrrolo[3,2-b]pyridin]-1′(2′H)-yl)-2-quinolinyl)-2-piperidinone] | 0.00162 µM |
| Cc1c(N2CCOC(C)(C)C2)nc2cc(F)cc(F)c2c1N1CC2(CCOCC2)c2ncc(N3CCOCC3)cc21 [1′-(2-(2,2-dimethyl-4-morpholinyl)-5,7-difluoro-3-methyl-4-quinolinyl)-6′-(4-morpholinyl)-1′,2,2′,3,5,6-hexahydrospiro[pyran-4,3′-pyrrolo[3,2-b]pyridine]] | 0.0054 µM |
| Cc1c(-c2cc(F)cc(F)c2)nc2cnccc2c1N1CC2(CCOCC2)c2ncc(N3CCOCC3)cc21 [1′-(2-(3,5-difluorophenyl)-3-methyl-1,7-naphthyridin-4-yl)-6′-(4-morpholinyl)-1′,2,2′,3,5,6-hexahydrospiro[pyran-4,3′-pyrrolo[3,2-b]pyridine]] | 0.0134 µM |

The remaining lines, values ahead:

| Ki | Compound |
| --- | --- |
| 0.45 µM | Cc1nc2ccccc2c(N2CC3(CCOCC3)c3ccc(N4CCOCC4)cc32)c1C [1-(2,3-dimethyl-4-quinolinyl)-6-(4-morpholinyl)-1,2,2′,3′,5′,6′-hexahydrospiro[indole-3,4′-pyran]] |
| 0.0913 µM | Cc1c(-c2ccccc2)nc2ccccc2c1N1CC2(CCOCC2)c2ccc(N3CCOCC3)cc21 [1-(3-methyl-2-phenyl-4-quinolinyl)-6-(4-morpholinyl)-1,2,2′,3′,5′,6′-hexahydrospiro[indole-3,4′-pyran]] |
| 0.0211 µM | Cc1c(-c2ccccn2)nc2cc(F)cc(F)c2c1N1CC2(CCOCC2)c2ccc(N3CCOCC3)cc21 [1-(5,7-difluoro-3-methyl-2-(2-pyridinyl)-4-quinolinyl)-6-(4-morpholinyl)-1,2,2′,3′,5′,6′-hexahydrospiro[indole-3,4′-pyran]] |
| 0.00464 µM | Cc1c(-n2ccccc2=O)nc2cc(F)cc(F)c2c1N1CC2(CCOCC2)c2ccc(N3CCOCC3)cc21 [1-(5,7-difluoro-3-methyl-4-(6-(4-morpholinyl)-2′,3′,5′,6′-tetrahydrospiro[indole-3,4′-pyran]-1(2H)-yl)-2-quinolinyl)-2(1H)-pyridinone] |
| 0.073 µM | Cc1nc2ccc(Cl)cc2c(N2CC3(CCOCC3)c3ccc(N4CCOCC4)cc32)c1C [1-(6-chloro-2,3-dimethyl-4-quinolinyl)-6-(4-morpholinyl)-1,2,2′,3′,5′,6′-hexahydrospiro[indole-3,4′-pyran]] |
| 0.57 µM | Cc1c(-c2ccccc2F)nc2cc(Cl)ccc2c1N1CC2(CCOCC2)c2ccc(N3CCOCC3)cc21 [1-(7-chloro-2-(2-fluorophenyl)-3-methyl-4-quinolinyl)-6-(4-morpholinyl)-1,2,2′,3′,5′,6′-hexahydrospiro[indole-3,4′-pyran]] |
| 0.0254 µM | Cc1c(-c2ccccc2F)nc2cc(F)ccc2c1N1CC2(CCOCC2)c2ccc(N3CCOCC3)cc21 [1-(7-fluoro-2-(2-fluorophenyl)-3-methyl-4-quinolinyl)-6-(4-morpholinyl)-1,2,2′,3′,5′,6′-hexahydrospiro[indole-3,4′-pyran]] |
| 0.0688 µM | COc1cccc(-c2nc3cc(F)ccc3c(N3CC4(CCOCC4)c4ccc(N5CCOCC5)cc43)c2C)n1 [1-(7-fluoro-2-(6-methoxy-2-pyridinyl)-3-methyl-4-quinolinyl)-6-(4-morpholinyl)-1,2,2′,3′,5′,6′-hexahydrospiro[indole-3,4′-pyran]] |
| 0.0102 µM | Cc1c(-c2ccccc2S(C)(=O)=O)nc2cc(F)ccc2c1N1CC2(CCOCC2)c2ccc(N3CCOCC3)cc21 [1-(7-fluoro-3-methyl-2-(2-(methylsulfonyl)phenyl)-4-quinolinyl)-6-(4-morpholinyl)-1,2,2′,3′,5′,6′-hexahydrospiro[indole-3,4′-pyran]] |
| 0.0145 µM | Cc1ncccc1-c1nc2cc(F)ccc2c(N2CC3(CCOCC3)c3ccc(N4CCOCC4)cc32)c1C [1-(7-fluoro-3-methyl-2-(2-methyl-3-pyridinyl)-4-quinolinyl)-6-(4-morpholinyl)-1,2,2′,3′,5′,6′-hexahydrospiro[indole-3,4′-pyran]] |
| 0.0182 µM | Cc1c(-c2ccccn2)nc2cc(F)ccc2c1N1CC2(CCOCC2)c2ccc(N3CCOCC3)cc21 [1-(7-fluoro-3-methyl-2-(2-pyridinyl)-4-quinolinyl)-6-(4-morpholinyl)-1,2,2′,3′,5′,6′-hexahydrospiro[indole-3,4′-pyran]] |
| 0.0644 µM | Cc1c(-c2ccccn2)nc2cc(F)ccc2c1N1CC2(CCS(=O)(=O)CC2)c2ccc(N3CCOCC3)cc21 [1-(7-fluoro-3-methyl-2-(2-pyridinyl)-4-quinolinyl)-6-(4-morpholinyl)-1,2,2′,3′,5′,6′-hexahydrospiro[indole-3,4′-thiopyran]-1′,1′-dioxide] |
| 0.0805 µM | Cc1c(-c2ccccn2)nc2cc(F)ccc2c1N1CC2(CS(=O)(=O)C2)c2ccc(N3CCOCC3)cc21 [1-(7-fluoro-3-methyl-2-(2-pyridinyl)-4-quinolinyl)-6-(4-morpholinyl)-1,2-dihydrospiro[indole-3,3′-thietane] 1′,1′-dioxide] |
| 0.0475 µM | Cc1c(-c2cccnc2)nc2cc(F)ccc2c1N1CC2(CCOCC2)c2ccc(N3CCOCC3)cc21 [1-(7-fluoro-3-methyl-2-(3-pyridinyl)-4-quinolinyl)-6-(4-morpholinyl)-1,2,2′,3′,5′,6′-hexahydrospiro[indole-3,4′-pyran]] |
| 0.0282 µM | Cc1c(-c2cc(F)cc(F)c2)nc2ncccc2c1N1CC2(CCOCC2)c2ncc(N3CCOCC3)cc21 [1′-(2-(3,5-difluorophenyl)-3-methyl-1,8-naphthyridin-4-yl)-6′-(4-morpholinyl)-1′,2,2′,3,5,6-hexahydrospiro[pyran-4,3′-pyrrolo[3,2-b]pyridine]] |
| 0.0121 µM | Cc1cc(C)cc(-c2nc3cc(F)ccc3c(N3CC4(CCOCC4)c4ncc(N5CCOCC5)cc43)c2C)c1 [1′-(2-(3,5-dimethylphenyl)-7-fluoro-3-methyl-4-quinolinyl)-6′-(4-morpholinyl)-1′,2,2′,3,5,6-hexahydrospiro[pyran-4,3′-pyrrolo[3,2-b]pyridine]] |
